Experimental data: PubChem BioAssay (NCI)
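Exposure lasted 48 hours, with cells grown in 96-well plates and compounds tested at five concentrations. The concentration for 50% growth inhibition is given as GI50. TGI: concentration producing complete growth inhibition.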

Experiments:
Experiment in all cases: growth of human tumour cells (NCI), 48 h
SF-295 CNS = test system: SF-295 CNS
IGROV1 ovarian = test system: IGROV1 ovarian
ACHN renal = test system: ACHN renal
NCI-H23 lung = test system: NCI-H23 lung
RPMI-8226 leukemia = test system: RPMI-8226 leukemia
UACC-62 melanoma = test system: UACC-62 melanoma
SK-OV-3 ovarian = test system: SK-OV-3 ovarian
SN12C renal = test system: SN12C renal
COLO 205 colon = test system: COLO 205 colon
A549 NSCLC = test system: A549 NSCLC
SK-MEL-2 melanoma = test system: SK-MEL-2 melanoma
HT29 colon = test system: HT29 colon
UACC-257 melanoma = test system: UACC-257 melanoma
M14 melanoma = test system: M14 melanoma
OVCAR-3 ovarian = test system: OVCAR-3 ovarian
SNB-19 CNS = test system: SNB-19 CNS
SK-MEL-28 melanoma = test system: SK-MEL-28 melanoma
CAKI-1 renal = test system: CAKI-1 renal
KM12 colon = test system: KM12 colon
K-562 leukemia = test system: K-562 leukemia
OVCAR-8 ovarian = test system: OVCAR-8 ovarian
A498 renal = test system: A498 renal
786-0 renal = test system: 786-0 renal
SK-MEL-5 melanoma = test system: SK-MEL-5 melanoma
SNB-75 CNS = test system: SNB-75 CNS
HOP-62 NSCLC = test system: HOP-62 NSCLC
HS 578T breast = test system: HS 578T breast
PC-3 prostate = test system: PC-3 prostate
SF-268 CNS = test system: SF-268 CNS
NCI-H522 lung = test system: NCI-H522 lung
CCRF-CEM leukemia = test system: CCRF-CEM leukemia
MDA-MB-231 breast = test system: MDA-MB-231 breast
NCI/ADR-RES ovarian = test system: NCI/ADR-RES ovarian
OVCAR-5 ovarian = test system: OVCAR-5 ovarian
MCF7 breast = test system: MCF7 breast
DU-145 prostate = test system: DU-145 prostate
TK-10 renal = test system: TK-10 renal
OVCAR-4 ovarian = test system: OVCAR-4 ovarian
HCC-2998 colon = test system: HCC-2998 colon
HCT-15 colon = test system: HCT-15 colon
U251 CNS = test system: U251 CNS
T-47D breast = test system: T-47D breast
HL-60(TB) leukemia = test system: HL-60(TB) leukemia
RXF 393 renal = test system: RXF 393 renal
SW-620 colon = test system: SW-620 colon
MOLT-4 leukemia = test system: MOLT-4 leukemia
MDA-MB-435 = test system: MDA-MB-435
NCI-H460 lung = test system: NCI-H460 lung
LOX IMVI melanoma = test system: LOX IMVI melanoma
MALME-3M melanoma = test system: MALME-3M melanoma
UO-31 renal = test system: UO-31 renal
EKVX NSCLC = test system: EKVX NSCLC
MDA-MB-468 breast = test system: MDA-MB-468 breast
NCI-H226 lung = test system: NCI-H226 lung
HOP-92 NSCLC = test system: HOP-92 NSCLC
HCT-116 colon = test system: HCT-116 colon
BT-549 breast = test system: BT-549 breast
SF-539 CNS = test system: SF-539 CNS

SMILES: Cn1cc(NC(=O)c2cc(NC(=O)c3ccc(/C=C/c4ccccc4)cc3)cn2C)cc1C(=O)NCCCN1CCOCC1
- GI50 (SF-295 CNS): 17.8 µM
- TGI (SF-295 CNS): > 28 µM
- GI50 (IGROV1 ovarian): > 28 µM
- TGI (IGROV1 ovarian): > 28 µM
- GI50 (ACHN renal): 18.6 µM
- TGI (ACHN renal): > 28 µM
- GI50 (NCI-H23 lung): 13.4 µM
- TGI (NCI-H23 lung): > 28 µM
- GI50 (RPMI-8226 leukemia): 3.35 µM
- TGI (RPMI-8226 leukemia): > 28 µM
- GI50 (UACC-62 melanoma): 21.2 µM
- TGI (UACC-62 melanoma): > 28 µM
- GI50 (SK-OV-3 ovarian): > 28 µM
- TGI (SK-OV-3 ovarian): > 28 µM
- GI50 (SN12C renal): 5.28 µM
- TGI (SN12C renal): > 28 µM
- GI50 (COLO 205 colon): > 28 µM
- TGI (COLO 205 colon): > 28 µM
- GI50 (A549 NSCLC): > 28 µM
- TGI (A549 NSCLC): > 28 µM
- GI50 (SK-MEL-2 melanoma): 4.94 µM
- TGI (SK-MEL-2 melanoma): 16.3 µM
- GI50 (HT29 colon): 4.85 µM
- TGI (HT29 colon): 19.6 µM
- GI50 (UACC-257 melanoma): 19.2 µM
- TGI (UACC-257 melanoma): > 28 µM
- GI50 (M14 melanoma): 14.7 µM
- TGI (M14 melanoma): > 28 µM
- GI50 (OVCAR-3 ovarian): 6.82 µM
- TGI (OVCAR-3 ovarian): > 28 µM
- GI50 (SNB-19 CNS): > 28 µM
- TGI (SNB-19 CNS): > 28 µM
- GI50 (SK-MEL-28 melanoma): > 28 µM
- TGI (SK-MEL-28 melanoma): > 28 µM
- GI50 (CAKI-1 renal): 15.3 µM
- TGI (CAKI-1 renal): > 28 µM
- GI50 (KM12 colon): 8.07 µM
- TGI (KM12 colon): > 28 µM
- GI50 (K-562 leukemia): 4.79 µM
- TGI (K-562 leukemia): 16.1 µM
- GI50 (OVCAR-8 ovarian): 7.21 µM
- TGI (OVCAR-8 ovarian): > 28 µM
- GI50 (A498 renal): > 28 µM
- TGI (A498 renal): > 28 µM
- GI50 (786-0 renal): 8.59 µM
- TGI (786-0 renal): > 28 µM
- GI50 (SK-MEL-5 melanoma): 14 µM
- TGI (SK-MEL-5 melanoma): > 28 µM
- GI50 (SNB-75 CNS): 4.42 µM
- TGI (SNB-75 CNS): 26.3 µM
- GI50 (HOP-62 NSCLC): 9.43 µM
- TGI (HOP-62 NSCLC): > 28 µM
- GI50 (HS 578T breast): 6.14 µM
- TGI (HS 578T breast): > 28 µM
- GI50 (PC-3 prostate): 13 µM
- TGI (PC-3 prostate): > 28 µM
- GI50 (SF-268 CNS): 21.5 µM
- TGI (SF-268 CNS): > 28 µM
- GI50 (NCI-H522 lung): 6.56 µM
- TGI (NCI-H522 lung): 25.2 µM
- GI50 (CCRF-CEM leukemia): 5.74 µM
- TGI (CCRF-CEM leukemia): > 28 µM
- GI50 (MDA-MB-231 breast): 9.18 µM
- TGI (MDA-MB-231 breast): > 28 µM
- GI50 (NCI/ADR-RES ovarian): 7.31 µM
- TGI (NCI/ADR-RES ovarian): 24.2 µM
- GI50 (OVCAR-5 ovarian): > 28 µM
- TGI (OVCAR-5 ovarian): > 28 µM
- GI50 (MCF7 breast): 3.57 µM
- TGI (MCF7 breast): > 28 µM
- GI50 (DU-145 prostate): 10.1 µM
- TGI (DU-145 prostate): > 28 µM
- GI50 (TK-10 renal): 15.1 µM
- TGI (TK-10 renal): > 28 µM
- GI50 (OVCAR-4 ovarian): > 28 µM
- TGI (OVCAR-4 ovarian): > 28 µM
- GI50 (HCC-2998 colon): 16.6 µM
- TGI (HCC-2998 colon): > 28 µM
- GI50 (HCT-15 colon): 7.41 µM
- TGI (HCT-15 colon): > 28 µM
- GI50 (U251 CNS): 10.5 µM
- TGI (U251 CNS): > 28 µM
- GI50 (T-47D breast): 5.59 µM
- TGI (T-47D breast): > 28 µM
- GI50 (HL-60(TB) leukemia): 7.49 µM
- TGI (HL-60(TB) leukemia): > 28 µM
- GI50 (RXF 393 renal): 2.08 µM
- TGI (RXF 393 renal): 18 µM
- GI50 (SW-620 colon): 6.89 µM
- TGI (SW-620 colon): 18.7 µM
- GI50 (MOLT-4 leukemia): 7.96 µM
- TGI (MOLT-4 leukemia): > 28 µM
- GI50 (MDA-MB-435): 8.59 µM
- TGI (MDA-MB-435): > 28 µM
- GI50 (NCI-H460 lung): 9.62 µM
- TGI (NCI-H460 lung): > 28 µM
- GI50 (LOX IMVI melanoma): 4.59 µM
- TGI (LOX IMVI melanoma): 9.32 µM
- GI50 (MALME-3M melanoma): 13.8 µM
- TGI (MALME-3M melanoma): > 28 µM
- GI50 (UO-31 renal): 15.2 µM
- TGI (UO-31 renal): > 28 µM
- GI50 (EKVX NSCLC): 16.6 µM
- TGI (EKVX NSCLC): > 28 µM
- GI50 (MDA-MB-468 breast): 5.88 µM
- TGI (MDA-MB-468 breast): 18.5 µM
- GI50 (NCI-H226 lung): 24.1 µM
- TGI (NCI-H226 lung): > 28 µM
- GI50 (HOP-92 NSCLC): 3.15 µM
- TGI (HOP-92 NSCLC): 14.9 µM
- GI50 (HCT-116 colon): 7.39 µM
- TGI (HCT-116 colon): > 28 µM
- GI50 (BT-549 breast): 4.84 µM
- TGI (BT-549 breast): 18.4 µM
- GI50 (SF-539 CNS): 5.8 µM
- TGI (SF-539 CNS): 16.5 µM
